Assay results taken from paper PMC6409085, “Three odorant-binding proteins are involved in the behavioral response of Sogatella furcifera to rice plant volatiles” (PeerJ, 2019).
pIC50: −log10 of the molar value. Values joined by “and” are separate entries in the source; they are usually repeats but may differ in a detail not shown here. Identical values can stand only once.

Key:
[1] = system: S. furcifera adults; test: Y-tube olfactometer behavioral trials; format: in vivo, Sogatella furcifera; details: odorant 50 µL/L vs hexane; adults
Protocol: To test the effect of the rice odorants on the behavior of S. furcifera adults, a glass Y-tube olfactometer (inner diameter 2.0 cm, stem 13 cm, arms 10 cm, angle of arms 60°) according to the previously described ([Wang et al., 2014b]) was employed. An airtight cubic box (70 by 45 by 30 cm) was used to position Y-tube, and the Y-tube was lighted by a 30-W filament lamp 25 cm above it. Air that filtered through activated charcoal and humidified with doubly distilled water was pumped in both arms at a flow rate of 300 mL/min. Two filter paper strips (10 by 1 cm) containing 100 µL odorant source (50 µL/L) and 100 µL control hexane were placed in two holding chambers in the front of the olfactometer, respectively. A S. furcifera adult (2 days after emergence, starved for 0.5 h) was randomly chosen and placed in the stem of the Y-tube. Each insect was given 10 min to choose between the two arms of the Y-tube, the choice was noted if the planthopper reached one-half of the arms’ lengths and stayed in the arm for more than 1 min. Besides, S. furcifera was considered as having no orientation preference. Forty-five individuals were used for each compound, each insect used only once. And the dual-choice experiment was done in an environmentally controlled room (25 ± 1 °C and 50% RH). A Chi-squared test was used to analyze the behavioral assay data by using SPSS19.0 (SPSS Inc., Chicago, IL, USA) software.

[2] = biological target: SfurOBP2 (Sogatella furcifera, UniProt V5T759); test: biochemical; format: binding
Outline: (§1)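 Protein 2.0 µM + 1-NPN 2.0 µM, 50 mM Tris-HCl pH 7.4; competitor odorants 2, 4 … 20 µM final; read 2 min post-addition, ex 337/em 390–490 nm; n=3. K1-NPN from 1-NPN titration/Scatchard; Ki from IC50 corrected for free 1-NPN.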

[3] = biological target: SfurOBP11 (Sogatella furcifera, UniProt V5T6E3); test: biochemical; format: binding
Outline: as §1

[4] = biological target: SfurOBP3 (Sogatella furcifera, UniProt V5T818); test: biochemical; format: binding; details: for Fluorescence competitive binding assay, fluorescence intensity: OBP3, three replicate columns
Outline: as §1

[5] = biological target: SfurOBP1 (Sogatella furcifera, UniProt V5T8N5); test: biochemical; format: binding; details: for Fluorescence competitive binding assay, fluorescence intensity: OBP1, three replicate columns
Outline: as §1

Chain of SfurOBP2 (V5T759 entry or part of it): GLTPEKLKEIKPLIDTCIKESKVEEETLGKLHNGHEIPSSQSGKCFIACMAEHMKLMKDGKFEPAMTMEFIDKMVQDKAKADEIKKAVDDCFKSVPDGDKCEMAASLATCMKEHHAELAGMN
Chain of SfurOBP11 (V5T6E3 entry or part of it): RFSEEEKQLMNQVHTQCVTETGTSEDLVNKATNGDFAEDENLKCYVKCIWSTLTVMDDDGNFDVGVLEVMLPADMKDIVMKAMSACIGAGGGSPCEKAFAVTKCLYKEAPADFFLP
Chain of SfurOBP1 (V5T8N5 entry or part of it): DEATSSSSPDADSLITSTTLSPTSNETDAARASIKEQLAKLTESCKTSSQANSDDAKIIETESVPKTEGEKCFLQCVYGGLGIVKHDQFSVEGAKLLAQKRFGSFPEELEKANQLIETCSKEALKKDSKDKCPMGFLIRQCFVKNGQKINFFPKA
Chain of SfurOBP3 (V5T818 entry or part of it): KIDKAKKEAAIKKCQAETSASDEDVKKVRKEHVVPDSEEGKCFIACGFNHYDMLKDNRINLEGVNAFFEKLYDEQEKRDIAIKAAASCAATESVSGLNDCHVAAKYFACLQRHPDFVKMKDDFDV

Structure (SMILES): O=Cc1ccccc1 [benzaldehyde]
- number of insects choosing hexane arm [1]: 10
- number of insects choosing volatilies arm [1]: 7
- number of insects failed (no choice) [1]: 23
- pIC50 [2]: < 4.70
- Fluorescence competitive binding assay, OBP2 (raw fluorescence reading) ([2]; ligand concentration 2 (unit not given), replicate column 1 of 3): 15507
- Fluorescence competitive binding assay, OBP2 (raw fluorescence reading) ([2]; ligand concentration 2 (unit not given), replicate column 2 of 3): 14848
- Fluorescence competitive binding assay, OBP2 (raw fluorescence reading) ([2]; ligand concentration 2 (unit not given), replicate column 3 of 3): 15027
- Fluorescence competitive binding assay, OBP2 (raw fluorescence reading) ([2]; ligand concentration 4 (unit not given), replicate column 1 of 3): 14937
- Fluorescence competitive binding assay, OBP2 (raw fluorescence reading) ([2]; ligand concentration 4 (unit not given), replicate column 2 of 3): 13962
- Fluorescence competitive binding assay, OBP2 (raw fluorescence reading) ([2]; ligand concentration 4 (unit not given), replicate column 3 of 3): 14585
- Fluorescence competitive binding assay, OBP2 (raw fluorescence reading) ([2]; ligand concentration 6 (unit not given), replicate column 1 of 3): 13559
- Fluorescence competitive binding assay, OBP2 (raw fluorescence reading) ([2]; ligand concentration 6 (unit not given), replicate column 2 of 3): 14529
- Fluorescence competitive binding assay, OBP2 (raw fluorescence reading) ([2]; ligand concentration 6 (unit not given), replicate column 3 of 3): 14868
- Fluorescence competitive binding assay, OBP2 (raw fluorescence reading) ([2]; ligand concentration 8 (unit not given), replicate column 1 of 3): 13310
- Fluorescence competitive binding assay, OBP2 (raw fluorescence reading) ([2]; ligand concentration 8 (unit not given), replicate column 2 of 3): 14622
- Fluorescence competitive binding assay, OBP2 (raw fluorescence reading) ([2]; ligand concentration 8 (unit not given), replicate column 3 of 3): 14449
- Fluorescence competitive binding assay, OBP2 (raw fluorescence reading) ([2]; ligand concentration 10 (unit not given), replicate column 1 of 3): 13559
- Fluorescence competitive binding assay, OBP2 (raw fluorescence reading) ([2]; ligand concentration 10 (unit not given), replicate column 2 of 3): 13459
- Fluorescence competitive binding assay, OBP2 (raw fluorescence reading) ([2]; ligand concentration 10 (unit not given), replicate column 3 of 3): 14101
- Fluorescence competitive binding assay, OBP2 (raw fluorescence reading) ([2]; ligand concentration 12 (unit not given), replicate column 1 of 3): 13500
- Fluorescence competitive binding assay, OBP2 (raw fluorescence reading) ([2]; ligand concentration 12 (unit not given), replicate column 2 of 3): 13742
- Fluorescence competitive binding assay, OBP2 (raw fluorescence reading) ([2]; ligand concentration 12 (unit not given), replicate column 3 of 3): 13318
- Fluorescence competitive binding assay, OBP2 (raw fluorescence reading) ([2]; ligand concentration 14 (unit not given), replicate column 1 of 3): 12764
- Fluorescence competitive binding assay, OBP2 (raw fluorescence reading) ([2]; ligand concentration 14 (unit not given), replicate column 2 of 3): 13284
- Fluorescence competitive binding assay, OBP2 (raw fluorescence reading) ([2]; ligand concentration 14 (unit not given), replicate column 3 of 3): 13618
- Fluorescence competitive binding assay, OBP2 (raw fluorescence reading) ([2]; ligand concentration 16 (unit not given), replicate column 1 of 3): 12066
- Fluorescence competitive binding assay, OBP2 (raw fluorescence reading) ([2]; ligand concentration 16 (unit not given), replicate column 2 of 3): 12546
- Fluorescence competitive binding assay, OBP2 (raw fluorescence reading) ([2]; ligand concentration 16 (unit not given), replicate column 3 of 3): 12131
- Fluorescence competitive binding assay, OBP2 (raw fluorescence reading) ([2]; ligand concentration 18 (unit not given), replicate column 1 of 3): 11847
- Fluorescence competitive binding assay, OBP2 (raw fluorescence reading) ([2]; ligand concentration 18 (unit not given), replicate column 2 of 3): 12489
- Fluorescence competitive binding assay, OBP2 (raw fluorescence reading) ([2]; ligand concentration 18 (unit not given), replicate column 3 of 3): 12075
- Fluorescence competitive binding assay, OBP2 (raw fluorescence reading) ([2]; ligand concentration 20 (unit not given), replicate column 1 of 3): 11984
- Fluorescence competitive binding assay, OBP2 (raw fluorescence reading) ([2]; ligand concentration 20 (unit not given), replicate column 2 of 3): 12356
- Fluorescence competitive binding assay, OBP2 (raw fluorescence reading) ([2]; ligand concentration 20 (unit not given), replicate column 3 of 3): 11918
- pIC50 [3]: < 4.70
- Fluorescence intensity, fluorescence competitive binding assay, OBP11 ([3]; ligand concentration 2, replicate 1): 25700
- Fluorescence intensity, fluorescence competitive binding assay, OBP11 ([3]; ligand concentration 2, replicate 2): 26420
- Fluorescence intensity, fluorescence competitive binding assay, OBP11 ([3]; ligand concentration 2, replicate 3): 26489
- Fluorescence intensity, fluorescence competitive binding assay, OBP11 ([3]; ligand concentration 4, replicate 1): 25103
- Fluorescence intensity, fluorescence competitive binding assay, OBP11 ([3]; ligand concentration 4, replicate 2): 25939
- Fluorescence intensity, fluorescence competitive binding assay, OBP11 ([3]; ligand concentration 4, replicate 3): 26917
- Fluorescence intensity, fluorescence competitive binding assay, OBP11 ([3]; ligand concentration 6, replicate 1): 24540
- Fluorescence intensity, fluorescence competitive binding assay, OBP11 ([3]; ligand concentration 6, replicate 2): 24263
- Fluorescence intensity, fluorescence competitive binding assay, OBP11 ([3]; ligand concentration 6, replicate 3): 26004
- Fluorescence intensity, fluorescence competitive binding assay, OBP11 ([3]; ligand concentration 8, replicate 1): 24810
- Fluorescence intensity, fluorescence competitive binding assay, OBP11 ([3]; ligand concentration 8, replicate 2): 23717
- Fluorescence intensity, fluorescence competitive binding assay, OBP11 ([3]; ligand concentration 8, replicate 3): 25921
- Fluorescence intensity, fluorescence competitive binding assay, OBP11 ([3]; ligand concentration 10, replicate 1): 21750
- Fluorescence intensity, fluorescence competitive binding assay, OBP11 ([3]; ligand concentration 10, replicate 2): 22655
- Fluorescence intensity, fluorescence competitive binding assay, OBP11 ([3]; ligand concentration 10, replicate 3): 24544
- Fluorescence intensity, fluorescence competitive binding assay, OBP11 ([3]; ligand concentration 12, replicate 1): 22377
- Fluorescence intensity, fluorescence competitive binding assay, OBP11 ([3]; ligand concentration 12, replicate 2): 22204
- Fluorescence intensity, fluorescence competitive binding assay, OBP11 ([3]; ligand concentration 12, replicate 3): 22549
- Fluorescence intensity, fluorescence competitive binding assay, OBP11 ([3]; ligand concentration 14, replicate 1): 20889
- Fluorescence intensity, fluorescence competitive binding assay, OBP11 ([3]; ligand concentration 14, replicate 2): 20823
- Fluorescence intensity, fluorescence competitive binding assay, OBP11 ([3]; ligand concentration 14, replicate 3): 20954
- Fluorescence intensity, fluorescence competitive binding assay, OBP11 ([3]; ligand concentration 16, replicate 1): 18305
- Fluorescence intensity, fluorescence competitive binding assay, OBP11 ([3]; ligand concentration 16, replicate 2): 18429
- Fluorescence intensity, fluorescence competitive binding assay, OBP11 ([3]; ligand concentration 16, replicate 3): 20008
- Fluorescence intensity, fluorescence competitive binding assay, OBP11 ([3]; ligand concentration 18, replicate 1): 18084
- Fluorescence intensity, fluorescence competitive binding assay, OBP11 ([3]; ligand concentration 18, replicate 2): 18788
- Fluorescence intensity, fluorescence competitive binding assay, OBP11 ([3]; ligand concentration 18, replicate 3): 18463
- Fluorescence intensity, fluorescence competitive binding assay, OBP11 ([3]; ligand concentration 20, replicate 1): 17844
- Fluorescence intensity, fluorescence competitive binding assay, OBP11 ([3]; ligand concentration 20, replicate 2): 18414
- Fluorescence intensity, fluorescence competitive binding assay, OBP11 ([3]; ligand concentration 20, replicate 3): 17540
- pIC50 [4]: < 4.70
- Fluorescence competitive binding assay, fluorescence intensity ([4]; ligand concentration 2): 45330 and 44709 and 45950
- Fluorescence competitive binding assay, fluorescence intensity ([4]; ligand concentration 4): 42404 and 44063 and 46652
- Fluorescence competitive binding assay, fluorescence intensity ([4]; ligand concentration 6): 42957 and 46006 and 45764
- Fluorescence competitive binding assay, fluorescence intensity ([4]; ligand concentration 8): 41484 and 44807 and 44761
- Fluorescence competitive binding assay, fluorescence intensity ([4]; ligand concentration 10): 42296 and 40919 and 43670
- Fluorescence competitive binding assay, fluorescence intensity ([4]; ligand concentration 12): 40362 and 40474 and 40259
- Fluorescence competitive binding assay, fluorescence intensity ([4]; ligand concentration 14): 36140 and 35545 and 34940
- Fluorescence competitive binding assay, fluorescence intensity ([4]; ligand concentration 16): 32608 and 31985 and 31371
- Fluorescence competitive binding assay, fluorescence intensity ([4]; ligand concentration 18): 31185 and 31705 and 30913
- Fluorescence competitive binding assay, fluorescence intensity ([4]; ligand concentration 20): 30533 and 30370 and 31330
- pIC50 [5]: < 4.70
- Fluorescence competitive binding assay, fluorescence intensity ([5]; ligand concentration 2 (μM)): 6748 and 7004 and 6492
- Fluorescence competitive binding assay, fluorescence intensity ([5]; ligand concentration 4 (μM)): 7245 and 7115 and 7374
- Fluorescence competitive binding assay, fluorescence intensity ([5]; ligand concentration 6 (μM)): 6061 and 6132 and 7040
- Fluorescence competitive binding assay, fluorescence intensity ([5]; ligand concentration 8 (μM)): 7119 and 7198 and 8488
- Fluorescence competitive binding assay, fluorescence intensity ([5]; ligand concentration 10 (μM)): 6689 and 6820 and 6663
- Fluorescence competitive binding assay, fluorescence intensity ([5]; ligand concentration 12 (μM)): 6039 and 7567 and 5952
- Fluorescence competitive binding assay, fluorescence intensity ([5]; ligand concentration 14 (μM)): 5985 and 6868 and 6969
- Fluorescence competitive binding assay, fluorescence intensity ([5]; ligand concentration 16 (μM)): 5390 and 5637 and 6081
- Fluorescence competitive binding assay, fluorescence intensity ([5]; ligand concentration 18 (μM)): 7493 and 9048 and 6239
- Fluorescence competitive binding assay, fluorescence intensity ([5]; ligand concentration 20 (μM)): 8583 and 7861 and 5961
